How the values were obtained:
[1] = system: primary hepatocytes; assay: Hepatocyte uptake assay scaled to in vivo clearance (human); format: in vitro ADME; details: scaled from human hepatocyte uptake, well-stirred liver model
Description: (§1) The compounds of the present invention are cleared through hepatic uptake, which can be determined experimentally in vitro using methods described in the art (e.g., K. Menochet, K. E. Kenworthy, J. B. Houston, A. Galetin, Journal of Pharmacology and Experimental Therapeutics 2012, 34, 2). In cases where the scaled in vitro hepatocyte uptake clearance data correspond to the clearance observed in animals, a meaningful prediction of the human clearance can be made on the basis of in vitro human hepatocyte uptake data.
(§2) The hepatocyte uptake assay was performed manually in 24-well plates in analogy to a protocol described in the literature (K. Menochet, K. E. Kenworthy, J. B. Houston, A. Galetin, Journal of Pharmacology and Experimental Therapeutics 2012, 34, 2). […] Next, the cell monolayer was lysed using acetonitrile/water 3:1, and the intracellular concentration was measured using LC-MS/MS.
(§3) Total (CLuptake) and passive (CLpassive) uptake clearance values were measured from initial uptake rates in the absence and presence of inhibitors. Uptake rates were calculated over 10 minutes at 37° C. from the slope of the linear regression of the cell concentrations versus time plot. Total and passive uptake clearance values were calculated by dividing the slope by the initial substrate concentration and were normalized for protein content. […]

[2] = Single dose pharmacokinetic study in male cynomolgus monkeys; details: cynomolgus monkey, plasma, intravenous bolus dose of 1 mg/kg, read-out: cynomolgus monkey clearance, observed in vivo
Experimental: Three male monkeys were administered with compound formulation (2 mg/mL in 0.9% saline) as an intravenous bolus dose of 1 mg/kg.
(§4) Blood was sampled at 0.08, 0.25, 0.5, 1, 2, 4, 7 and 24 hours after administration and the blood collecting tubes were centrifuged for 5 min at 5200 g at room temperature to isolate the plasma supernatant.
Concentrations of compound in plasma were analyzed using a LC-MS method with a calibration range of 0.5-2500 ng/mL and are summarised in Example 23.

[3] = system: primary hepatocytes; assay: Hepatocyte uptake assay scaled to in vivo clearance (cynomolgus monkey); format: in vitro ADME; details: scaled from monkey hepatocyte uptake, well-stirred liver model
Description: as §1, §2, §3

[4] = system: primary hepatocytes; assay: Hepatocyte uptake assay scaled to in vivo clearance (rat); format: in vitro ADME; details: scaled from rat hepatocyte uptake, well-stirred liver model
Description: as §1, §2, §3

[5] = Single dose pharmacokinetic study in male rats; details: rat, plasma, intravenous bolus dose of 6 mg/kg, read-out: rat clearance, observed in vivo
Experimental: Three male rats were administered with compound formulation (3 mg/mL in 0.9% saline) as an intravenous bolus dose of 6 mg/kg.
as §4
Concentrations of compound in plasma were analyzed using a LC-MS method with a calibration range of 1-2500 ng/mL. The clearance values are calculated using methods described in the art and are summarised in Example 23.

[6] = Plasma precipitation screening assay; set-up: species or system rat
Experimental: An aliquot (10 μL) of compound solubilized in physiological buffer or the formulation used for its parenteral administration in vivo, and of various dilutions thereof in phosphate-buffered saline (PBS), is mixed 1:1 with rat plasma. After 10 minutes incubation at room temperature the UV-absorption of the mixtures is measured and compared to absorption of blank plasma or plasma with vehicle solution. A significant (often concentration dependent) increase of absorption is indicative of precipitation.
Whole blood is obtained from WISTAR rats (Hanbrl:Wist SPF) under terminal anaesthesia after intraperitoneal injection of a pentobarbital solution (from animals euthanized for collection of tissue for other experimental purposes). Blood is collected in 1.2 mL of Heparin S-Monovette tubes (Sarstedt) for the preparation of heparin plasma.
The tubes are then centrifuged for 5 min at 5200 g at room temperature to isolate the plasma supernatant. The plasma is used in the assay within 48 h of collection (storage at 4° C.).
Test compounds are received as powder or formulated. When obtained as powder, they are solubilized in 0.9% aq. sodium chloride solution in order to get the highest indicated concentration to be tested. The solubility is visually checked and the solutions are filtered using 0.45 PVDF hydrophilic filters (Durapore®, Darmstadt, Germany), to remove possible solid impurities. pH of this initial solution might be measured in the filtered stock solutions, before proceeding to prepare a compound dilution series in PBS (1:1-dilution steps).
The assay is conducted in 384-well plates. 10 μL of rat plasma is added to 10 μL of the various compound solutions. The assay is performed in duplicate. 10 μL of vehicle (0.9% aq. sodium chloride solution, PBS) added to the plasma is used as a negative control. The absorption is measured at 362 nm.
Raw data obtained are absorbance data. The difference between absorbance of the sample and mean absorbance of vehicle is calculated. The minimal effect concentration (MEC) is defined as the lowest concentration giving an absorbance difference, OD362≥0.05.

[7] = system: A. baumannii ATCC 17978; assay: 50% growth inhibitory concentration (IC50) determination, antimicrobial susceptibility testing; format: cell-based; details: Acinetobacter baumannii; 50% growth inhibition, A. baumannii strain ATCC17978, Iso-Sensitest medium; read-out: IC50 ATCC17978
Experimental: The in vitro antimicrobial activity of the compounds was alternatively determined according to the following procedure:
The assay used a 10-points Iso-Sensitest broth medium to measure quantitatively the in vitro activity of the compounds against A. baumannii ATCC 17978.
Stock compounds in DMSO were serially twofold diluted (e.g. range from 50 to 0.097 μM or from 10 to 0.020 μM final concentration) in 384 wells microtiter plates and inoculated with 49 μl the bacterial suspension in Iso-Sensitest medium to have a final cell concentration of ˜5×10^(5)CFU/ml in a final volume/well of 50 μl/well. Microtiter plates were incubated at 35±2° C.
Bacterial cell growth was determined with the measurement of optical density at X=600 nm each 20 minutes over a time course of 16h.
Growth inhibition was calculated during the logarithmic growth of the bacterial cells with determination of the concentration inhibiting 50% (IC50) and 90% (IC90) of the growth.
Table 1 provides the 50% growth inhibitory concentrations (IC50) in micromoles per liter of the compounds of present invention obtained against the A. baumannii strain ATCC17978.

[8] = positive control and comparator in all assay runs; cited from earlier work
[9] = Wistar (Hanbrl:Wist SPF), rat, 10 min

Row | SMILES | human clearance, in vitro scaled (predicted) [1] [mL/min/kg] | clearance [2] [mL/min/kg] | cynomolgus monkey clearance, in vitro scaled [3] [mL/min/kg] | rat clearance, in vitro scaled [4] [mL/min/kg] | clearance [5] [mL/min/kg] | Plasma precipitation MEC ([6]; minimal effect concentration, lowest concentration giving absorbance difference OD362≥0.05, rat plasma 1:1, 10 minutes room temperature) [µmol/L] | IC50 [7] [nM] | Plasma precipitation MEC [6, 9] [µmol/L] | precipitation in plasma [8]
1 | CN1C(=O)[C@H](CCCCN)NC(=O)[C@H](CCCN)NCc2cccnc2Sc2c(Cl)ccc(-c3ccc(C(=O)O)cc3)c2CNC(=O)[C@@H]1Cc1c[nH]c2ccccc12 [drawing 99, reference compound] | 3.91 | 14.5 | 28.3 | 28.7 | 23.5 | – | – | – | –
2 | CN1C(=O)[C@H](CCCCN)NC(=O)[C@H](CCCN)NCc2cccnc2Sc2cccc(-c3ccc(C(=O)O)cc3)c2CNC(=O)[C@@H]1Cc1c[nH]c2ccccc12 [Example 1.00, 4-[(11S,14S,17S)-14-(4-Aminobutyl)-1-(3-aminopropyl)-17-(1H-indol-3-ylmethyl)-16-methyl-12,15,18-trioxo-2-thia-4,10,13,16,19-pentazatricyclo[19.4.0.03,8]pentacosa-1(25), 3(8),4,6,21,23-hexaen-22-yl]benzoic Acid] | 0.46 | 4.8 | 3.8 | 14.5 | 14.3 | 1110 | 98 | – | –
3 | CN1C(=O)[C@H](CCCCN)NC(=O)[C@H](CCCN)NCc2nccnc2Sc2c(Cl)ccc(-c3ccc(C(=O)O)c(F)c3)c2CNC(=O)[C@@H]1Cc1c[nH]c2ccccc12 [Example 8.02, 4-[(11S,14S,17S)-14-(4-aminobutyl)-11-(3-aminopropyl)-25-chloro-17-(1H-indo1-3-ylmethyl)-16-methyl-12,15,18-trioxo-2-thia-4,7,10,13,16,19-hexazatricyclo[19.4.0.03,8]pentacosa-1(21),3,5,7,22,24-hexaen-22-yl]-2-fluoro-benzoic acid] | – | – | – | – | – | – | 19 | 380 | –
4 | Cc1ccc(-c2ccc(C(=O)O)cc2)c2c1Sc1ncccc1CN[C@@H](CCCN)C(=O)N[C@@H](CCCCN)C(=O)N(C)[C@@H](Cc1c[nH]c3ccccc13)C(=O)NC2 [Example 10.00, 4-[(11S,14S,17S)-14-(4-Aminobutyl)-1-(3-aminopropyl)-17-(1H-indol-3-ylmethyl)-16,25-dimethyl-12,15,18-trioxo-2-thia-4,10,13,16,19-pentazatricyclo[19.4.0.03,8]pentacosa-1(25), 3(8), 4,6,21,23-hexaen-22-yl]benzoic Acid] | – | – | – | – | – | – | 24 | 870 | –
5 | CN1C(=O)[C@H](CCCCN)NC(=O)[C@H](CCCN)NCc2cccnc2Sc2c(Cl)ccc(-c3ccc(OCC(=O)O)cc3)c2CNC(=O)[C@@H]1Cc1c[nH]c2ccccc12 [Example 241 of WO2017/072062, reference compound] | – | – | – | – | – | – | 50 | 95 | –
6 | CN1C(=O)[C@H](CCCCN)NC(=O)[C@H](CCCN)NCc2cccnc2Sc2c(Cl)ccc(Cl)c2CNC(=O)[C@@H]1Cc1c[nH]c2ccccc12 [CAS-RN 2097284-11-0, (11S,14S,17S)-14-(4-Aminobutyl)-11-(3-aminopropyl)-22,25-dichloro-17-(1H-indol-3-ylmethyl)-16-methyl-2-thia-4,10,13,16,19-pentazatricyclo[19.4.0.03,8]pentacosa-1(25),3(8),4,6,21,23-hexaene-12,15,18-trione] | – | – | – | – | – | – | – | – | known to induce precipitation in plasma

From patent US11819532B2, “Peptide macrocycles against Acinetobacter baumannii” (Hoffmann-La Roche Inc., priority 2018, dated 2023)
